The subject of experiment [1] is transient focal cerebral ischemia induced by Middle Cerebral Artery Occlusion (MCAO). Nature of the experiment: Animal cerebral infarct assay: two-hour Middle Cerebral Artery Occlusion (MCAO) with reperfusion. The class given is in vivo, rat. Conditions: for total infarct volume relative to control animals: administered (I.V.) at the time of MCAO; for total ischemic damage relative to control animals: I.V. at the time of MCAO; for reduction of infarct volume: administered at reperfusion; for tissue edema relative to controls / total infarct volume relative to controls / total ischemic damage relative to controls: administered at the time of reperfusion; for edema relative to control animals: at the time of MCAO. The source says:
This assay is used to assess the efficacy of the test agents in protecting the brain against necrosis following cerebral ischemia induced in rats. Middle Cerebral Artery Occlusion (MCAO) is a widely used technique to induce transient focal cerebral ischemia in animal models. […] Furthermore, this model accurately represents the involvement of middle cerebral artery (MCA), the most affected vessel in human stroke, and also allows reperfusion as it happens in humans. MCAO by a two-hour occlusion is used to produce the maximum size of cortical infarction without increased mortality at twenty-four hours. Male Wistar rats (Hadan, Ind.) weighing 300-350 g were allowed free access to water and commercial rodent diet under standard laboratory conditions. The room temperature was maintained at 20-23° C. and room illumination was on a 12/12-hour light/dark cycle. The rats were acclimatized to the laboratory environment 5 to 7 days prior to the study. Before surgery, the animals were fasted overnight, but had free access to water. The rats were anesthetized with 3.0% isoflurane (Aerrane, Front Dodge, Iowa) in […] and the animal's neck was shaved and sterilized before the operation. The animals were subjected to two hours MCAO using a modified intraluminal filament technique. A midline incision on the ventral part of the neck was made to expose external and internal carotid arteries. The right external and common carotid arteries were ligated by a suture (silk 5/0, Carlisle Laboratories, Farmers Branch, Tex.) and the right internal artery was temporarily ligated by a microvascular clip (Fine Science Tool Inc., Foster City, Calif.). A small incision was made in the common carotid artery and a nylon filament, its tip rounded by heating, prepared from a fishing line (Stren Fishing Lines, Wilmington, Del.) was inserted from the right common carotid artery. The filament was advanced into the internal carotid artery 18-20 mm from the point of bifurcation of internal and external arteries and a suture was tightly ligated around the filament. Two hours post occlusion, the animals were re-anesthetized to allow reperfusion for the remaining of the experiment by removal of the filament. The anesthetized animal were placed on a stereotaxic apparatus (Harvard Apparatus, S. Natick, Mass.). Anesthesia was maintained by inhalation of 3.0% isoflurane in […] throughout the entire procedure. The scalp was shaved and sterilized prior to surgery. A midline sagittal incision about 3 cm long was made slightly behind the eyes to expose the skull. The skull was scraped with a rounded end spatula to remove periosteal connective tissue. A bur hole was placed 1.5 mm lateral, 1 mm posterior to the left of the bregma to mark the left lateral ventricle. A brain infusion cannula (ALZET CO. Palo Alto, Calif.) was inserted 4 mm deep into the hole. The desired depth was adjusted by attaching spacers to the cannula. The cannula was attached to a 4-cm silastic catheter (Helix Medical Inc.) fixed in place with dental cement (Ketac-cement, Norristown, Pa.). The catheter was either attached to a primed osmotic pump placed subcutaneously between the shoulder blades for permanent infusion or to a syringe for a short infusion. Anesthesia was maintained by inhalation of 3.0% isoflurane in […] throughout the entire procedure. The exterior site of the right femoral vein was shaved and sterilized prior to surgery. A 3 cm incision was made in the right groin region and the femoral vein was isolated. A small incision was made on the femoral vein temporarily ligated with a microvascular clip to introduce and advance a polyethylene (PE-50) catheter (Becton. Dickinson and Co., Sparks, Md.). The catheter was secured in place with suture (silk 5/0, Carlisle Laboratories, Farmers Branch, Tex.). The other end of the catheter was attached to a syringe filled with the heparinized saline for the bolus injection. […]

For experiment [2], the system named is congestive heart failure (CHF). Kind of experiment: Model of congestive heart failure: permanent ligation of the left coronary artery (Example 6). The class given is in vivo, rat. The note with it: after permanent ligation of the left coronary artery.
The nature of experiment [3]: Experiments performed in support of the invention: synergy of hesperetin with tocopherols (test not specified).
Setting [4] is: oral gavage pre-MCAO, dose not given.
[5] abbreviates: oral gavage pre-MCAO (3 hours), 10 mg/kg.
The mark [6] stands for this setting: listed as gamma-tocopherol metabolite enriched composition.
The mark [7] stands for this setting: listed as gamma-tocopherol enriched composition.
[8] abbreviates: listed as gamma-tocopherol enriched tocopherol composition.

“Also recorded” adds a separate entry of the source.

For `Cc1c(C)c2c(c(C)c1O)CC[C@@](C)(CCC[C@H](C)CCC[C@H](C)CCCC(C)C)O2` (relative stereo) [alpha-tocopherol, [2R-2R*(4R*,8R*)]-3,4-dihydro-2,5,7,8-tetramethyl-2-(4,8,12-trimethyltridecyl)-2H-1-benzopyran-6-ol, reference compound], the “reduction of infarct size” value turned out to be 42% in experiment [1] (6 mg/kg at MCAO (IV)) and 43% in experiment [1] (setting [4]).
Consider `Cc1cc(O)cc2c1O[C@](C)(CCC[C@H](C)CCC[C@H](C)CCCC(C)C)CC2` (relative stereo) [delta-tocopherol, [2R-[2R*(4R*,8R*)]]-3,4-dihydro-2,8-dimethyl-2-(4,8,12-trimethyltridecyl)-2H-1-benzo-pyran-6-ol], for which the “reduction of infarct size” value in experiment [1] (IV, 0.60 mg/kg) is 52%; in experiment [1] (setting [4]) it was 48%. The “total infarct volume relative to control animals” value in experiment [1] is reported as “reduce total infarct size”. In experiment [1] (rat, in vivo), the “reduction of total infarct volume compared with alpha-tocopherol” value is listed as “more effective”.
As for `Cc1cc(O)c(C)c2c1OC(C)(CCCC(C)CCCC(C)CCCC(C)C)CC2` (stereo not drawn) [beta-tocopherol, 3,4-dihydro-2,5,8-trimethyl-2-(4,8,12-trimethyltridecyl)-2H-1-benzopyran-6-ol], in experiment [1] (gavage, three hours pre-MCAO), the total infarct size entry is recorded as “reduce total infarct size”. The “reduction of infarct size” value in experiment [1] (setting [5]) is 76%.
For the compound `C[C@H](CS)C(=O)N1CCC[C@H]1C(=O)O` [captopril, 1-[(2S)-3-mercapto-2-methylpropionyl]-L-proline], in experiment [2], the heart weight entry is reported as “reduced heart weight” and the “left ventricular systolic pressure (LVSP)” value is “reduced LVSP”.
With `Cc1c(O)cc2c(c1C)OC(C)(CCC(=O)O)CC2` (stereo not shown) [gamma-CEHC, 6-hydroxy-2,7,8-trimethylchroman-2-propanoic acid], in experiment [1], the “total ischemic damage relative to control animals” value is on record as “significantly reduced”, the “total infarct volume relative to control animals” value is listed as “reduce total infarct size; also recorded: significantly reduced”, the “tissue edema relative to controls” value is listed as “reduction” and the “total infarct volume relative to controls” value is given as “reduce total infarct size”. Besides, in experiment [1], the “total ischemic damage relative to controls” value is “reduction” and the “edema relative to control animals” value is on record as “reduced tissue edema”. Also, the “decrease of neuronal damage” value in experiment [1] (IV at MCAO, drug range 0.1-5 mg/kg) is recorded as 50-65%. Besides, in experiment [1] (setting [6]), the “total infarct volume relative to control animals” value is “reduce total infarct” and the “total infarct volume relative to controls” value is reported as “reduction; also recorded: reduce total infarct”. For the same compound, the “reduction of infarct volume” value in experiment [1] (10 mg/kg) is 52%.
Take `Cc1c(O)cc2c(c1C)OC(C)(CCCC(C)CCCC(C)CCCC(C)C)CC2` (stereo not shown) [gamma-tocopherol, 3,4-dihydro-2,7,8-trimethyl-2-(4,8,12-trimethyltridecyl)-2H-1-benzyopyran-6-ol]: the “reduction of infarct size” value in experiment [1] (6 mg/kg at MCAO (IV)) is 82%. Further, in experiment [1], the “total ischemic damage relative to control animals” value was “significantly reduced”, the “tissue edema relative to controls” value is on record as “reduction”, the “total ischemic damage relative to controls” value was “reduction” and the “edema relative to control animals” value is reported as “significantly reduced”. For the same compound, the “reduction of infarct size” value in experiment [1] (IV, 0.6 mg/kg, at MCAO) was found to be 81%. In experiment [1] (setting [7]), the “total infarct volume relative to control animals” value is on record as “reduce total infarct size” and the “total infarct volume relative to controls” value is reported as “reduce total infarct size; also recorded: reduction”. Further, in experiment [1] (setting [8]), the “total infarct volume relative to control animals” value was “significantly reduced; also recorded: reduce total infarct” and the “total infarct volume relative to controls” value is reported as “reduce total infarct”. In experiment [1] (10 mg/kg), the “reduction of infarct volume” value was 70%. Also, in experiment [1] (at the same concentration), the “reduction of tissue edema compared with alpha- or delta-tocopherol” value is recorded as “more effective” and the “reduction of total infarct volume compared with alpha- or delta-tocopherol” value is recorded as “more effective”. Moreover, the “mean reduction of infarct volumes” value in experiment [1] (intraperitoneal, 10-20 mg/kg, at MCAO or 3 hours post-reperfusion) is 20-57%. For the same compound, in experiment [1] (oral gavage 3 hours pre-MCAO, 4 mg/kg), the “reduction of infarct size / infarct volume” value came to 53%. Moreover, in experiment [1] (setting [5]), the “reduction of infarct size” value was determined as 77%.
Regarding `COc1ccc([C@@H]2CC(=O)c3c(O)cc(O)cc3O2)cc1O` [hesperetin, (S)-2,3-dihydro-5,7-dihydroxy-2-(3-hydroxy-4-methoxyphenyl)-4H-1benzopyran-4-one], in experiment [3], the “synergy with gamma-tocopherol and delta-tocopherol” value is given as “act synergistically”.

The record behind these values is patent publication US20020132845A1, “Compositions and methods for the prevention and treatment of tissue ischemia” (priority 2000, published 2002).
